From patent US20220184008A1, “MODULATORS OF INTRACELLULAR CHLORIDE CONCENTRATION” (FONDAZIONE ISTITUTO ITALIANO DI TECNOLOGIA, priority 2019, published 2022)

Experiments:
[1] = Stability in plasma; assay type: in vitro ADME; conditions: resistance to hydrolysis, read-out: t½ in plasma
Protocol: (§1) FIG. 3: Assessment of drug-likeness of a selected compound, compound 3.17. a) Chemicophysical properties of bumetanide and compound 3.17 by LC-MS analysis. b) Comparison between urinary volume of WT mice (C57Bl/6N) two hours after treatment with bumetanide (0.2 mg/kg) and compound 3.17 (0.2 mg/kg). c) Assessment of urinary volume of Ts65Dn mouse model of Down syndrome and WT littermates two hours after treatment with compound 3.17 (0.2 mg/kg). Number in parenthesis: number of analyzed animals. Data represents mean±sem, and they are presented as % of the respective vehicle.
(§2) The selected NKCC1 inhibitor compound 3.17 has been evaluated for solubility in aqueous buffers, and stability in plasma and phase I metabolism in vitro (FIG. 3a).

[2] = Solubility in aqueous buffer; assay type: physicochemical; conditions: PBS, pH 7.4, aqueous buffer
Protocol: as §1, §2

[3] = system: Ts65Dn mice; assay: Cognitive impairment tests in Ts65Dn mice (object location, object recognition, T-maze, fear conditioning); assay type: in vivo; conditions: i.p. 0.2 mg/kg, one week; four cognitive tests
Description: FIG. 4: In vivo assessment of the efficacy of the selected NKCC1 inhibitor in Ts65Dn mice. (a) Quantification of the discrimination index in mice treated with vehicle (WT, n=14, Ts65Dn, n=10;) or 3.17 (WT, n=14, Ts65Dn, n=11;) ***P<0.001; two-way ANOVA Tukey's post hoc test. (b) Quantification of the discrimination index in mice treated with vehicle (WT, n=14, Ts65Dn, n=10;) or 3.17 (WT, n=14, Ts65Dn, n=11) *P<0.05, **P<0.01 two-way ANOVA Tukey's post hoc test. (c) Quantification of the correct choices in mice treated with vehicle (WT, n=14, Ts65Dn, n=10;) or 3.17 (WT, n=14, Ts65Dn, n=11;) ***P<0.001; two-way ANOVA Tukey's post hoc test. (d) Quantification of the freezing response in mice treated with vehicle (WT, n=14, Ts65Dn, n=10;) or 3.17 (WT, n=14, Ts65Dn, n=11;) *P<0.05, **P<0.01 two-way ANOVA Tukey's post hoc test.
The efficacy of compound 3.17 in rescuing cognitive impairment in four different cognitive tests in Ts65Dn mice (FIG. 4) has been evaluated. Adult Ts65Dn mice and their WT littermates were treated (2 months old) for one week with 3.17 (i.p. 0.2 mg/kg) or its vehicle. For the following three weeks, the animals were tested in four different tasks assessing memory and cognition: a) novel object location task (Deidda, G. et al. Reversing excitatory GABAAR signaling restores synaptic plasticity and memory in a mouse model of Down syndrome. […]

In the case of `CN(C)S(=O)(=O)c1cc(C(=O)O)ccc1NCCCCCCCC(F)(F)F` [Compound 3.17, 3-(dimethylsulfamoyl)-4-(8,8,8-trifluorooctylamino) benzoic acid], the half-life [1] is reported as > 2 h, the solubility [2] is reported as > 250 µM and the “cognitive performance of Ts65Dn mice” value [3] is reported as “ameliorated”.
